Numbering of substitutions follows the chain as printed.
T1: CASTOR1 (Homo sapiens, UniProt Q8WTX7, F303A)
T1 construct: full-length, residues 1-329, C-terminal His6 tag (pET-28a), E. coli BL21(DE3), homodimer in solution; Ni-NTA and gel filtration
T1 sequence (Q8WTX7 1-329 F303A): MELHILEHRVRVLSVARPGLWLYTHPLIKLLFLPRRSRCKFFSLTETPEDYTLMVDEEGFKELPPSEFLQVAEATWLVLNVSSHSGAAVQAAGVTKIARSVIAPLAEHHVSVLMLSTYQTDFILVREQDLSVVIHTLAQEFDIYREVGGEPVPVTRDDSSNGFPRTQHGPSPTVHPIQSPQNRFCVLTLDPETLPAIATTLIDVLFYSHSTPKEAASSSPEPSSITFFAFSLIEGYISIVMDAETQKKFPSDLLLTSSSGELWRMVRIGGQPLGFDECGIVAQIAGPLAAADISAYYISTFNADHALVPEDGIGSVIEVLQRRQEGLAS

T2: CASTOR1 (Homo sapiens, UniProt Q8WTX7, L113A)
T2 construct: full-length, residues 1-329, C-terminal His6 tag (pET-28a), E. coli BL21(DE3), homodimer in solution; Ni-NTA and gel filtration
T2 sequence (Q8WTX7 1-329 L113A): T1 sequence (Q8WTX7 1-329 F303A) with L113A, A303F

T3: CASTOR1 (Homo sapiens, UniProt Q8WTX7, V281A)
T3 construct: full-length, residues 1-329, C-terminal His6 tag (pET-28a), E. coli BL21(DE3), homodimer in solution; Ni-NTA and gel filtration
T3 sequence (Q8WTX7 1-329 V281A): T1 sequence (Q8WTX7 1-329 F303A) with V281A, A303F

T4: CASTOR1 (Homo sapiens, UniProt Q8WTX7)
T4 construct: full-length, residues 1-329, C-terminal His6 tag (pET-28a), E. coli BL21(DE3), homodimer in solution; Ni-NTA and gel filtration
T4 sequence (Q8WTX7 1-329): T1 sequence (Q8WTX7 1-329 F303A) with A303F

B1: full-length human CASTOR1 (residues 1-329), His6-tagged (natural protein, UniProt Q8WTX7 1-329, looked up)
chain: T1 sequence (Q8WTX7 1-329 F303A) with A303F
notes: CASTOR1, human, full length, residues 1-329; Cloned in pET-28a (NcoI/XhoI); Se-Met substituted protein was used for phasing; No removal of the His6 tag is described; also called recombinant CASTOR1; source: E. coli BL21 (DE3), purified (Ni-NTA, gel filtration on Superdex 200)
B2: CASTOR2, His6-SUMO fusion (natural protein, human, UniProt A6NHX0 1-329, looked up)
chain: MELHILEHRLQVASVAKESIPLFTYGLIKLAFLSSKTRCKFFSLTETPEDYTIIVDEEGFLELPSSEHLSVADATWLALNVVSGGGSFSSSQPIGVTKIAKSVIAPLADQNISVFMLSTYQTDFILVRERDLPFVTHTLSSEFTILRVVNGETVAAENLGITNGFVKPKLVQRPVIHPLSSPSNRFCVTSLDPDTLPAVATLLMDVMFYSNGVKDPMATGDDCGHIRFFSFSLIEGYISLVMDVQTQQRFPSNLLFTSASGELWKMVRIGGQPLGFDECGIVAQISEPLAAADIPAYYISTFKFDHALVPEENINGVISALKVSQAEKH
notes: CASTOR2, human; Homodimer on its own; in the co-expressed complex with m3 it stands once (heterodimer); Purification of the co-expressed complex is said to be the same as for CASTOR1 (Ni-NTA), so the tag would be the handle there; also called His6-SUMO fused castor2; source: E. coli BL21 (DE3), purified (Ni-NTA, gel filtration); also co-expressed with untagged CASTOR1 in E. coli BL21 (DE3)

Experiments:
[1] = biological target: T1, CASTOR1; test: isothermal titration calorimetry; type: binding
From the text: (§1) isothermal titration calorimetry on CASTOR1

[2] = biological target: T2, CASTOR1; test: isothermal titration calorimetry; type: binding
From the text: as §1

[3] = biological target: T3, CASTOR1; test: isothermal titration calorimetry; type: binding
From the text: as §1

[4] = biological target: T5, A^2A^1A^2A^2; test: isothermal titration calorimetry; type: binding, Homo sapiens; details: 20 °C; 1 mM ligand titrated into 70 μM protein; single-site model
T5 construct: gene CASTOR2; one polypeptide: CASTOR2 with ACT2 replaced by ACT2 of CASTOR1 (ACT2 of CASTOR1 = residues 1-5 and 76-147); E. coli
From the text: isothermal titration calorimetry on A^2A^1A^2A^2

[5] = biological target: T6, A^2A^1A^2A^1; test: isothermal titration calorimetry; type: binding, Homo sapiens; details: 20 °C; 1 mM ligand titrated into 70 μM protein; single-site model
T6 construct: gene CASTOR2; one polypeptide: CASTOR2 with ACT2 and ACT4 replaced by those of CASTOR1 (CASTOR1 residues 1-5, 76-147, 176-179, 263-329); E. coli
From the text: isothermal titration calorimetry on A^2A^1A^2A^1

[6] = biological target: T7, A^2A^2A^2A^1; test: isothermal titration calorimetry; type: binding, Homo sapiens; details: 20 °C; 1 mM ligand titrated into 70 μM protein; single-site model
T7 construct: gene CASTOR2; one polypeptide: CASTOR2 with ACT4 replaced by ACT4 of CASTOR1 (ACT4 of CASTOR1 = residues 176-179 and 263-329); E. coli
From the text: isothermal titration calorimetry on A^2A^2A^2A^1

[7] = biological target: T4, CASTOR1; test: isothermal titration calorimetry; type: binding
[8] = biological target: the molecule itself; test: SEC + other: dynamic light scattering; purified recombinant proteins in solution; CASTOR1 with and without arginine (dimerization independent of arginine); the CASTOR1-CASTOR2 complex analysed after co-purification

| Molecule | Kd [1] [µM] | Kd [2] [µM] | Kd [3] [µM] | Kd [4] [µM] | Kd [5] [µM] | Kd [6] [µM] | Kd [7] [µM] | stoichiometry N [8] |
| --- | --- | --- | --- | --- | --- | --- | --- | --- |
| N=C(N)NCCC[C@H](N)C(=O)O [arginine] | 17.6 ± 1.9 | 160 ± 23.6 | 25.6 ± 4.3 | 55 ± 11.5 | 8.6 ± 1.9 | 40.2 ± 8.4 | 5.5 ± 0.4 |  |
| B1 |  |  |  |  |  |  |  | 2 |
| B2 |  |  |  |  |  |  |  | 2 |

Reference: article PMC5020642, “Structural insight into the arginine-binding specificity of CASTOR1 in amino acid-dependent mTORC1 signaling” (Cell Discovery, 2016)
